Data taken from US9399662B2, “Concurrent chemotherapy and immunotherapy” (Duke University, priority 2005, dated 2016).

Test system: CD4+CD25+FoxP3+ regulatory T cells and CD8+ T cells
Assay: Flow cytometry of CD8+ T cell and Treg subsets during an immunochemotherapy cycle
Type: in vivo, human
Conditions: day 12 of temozolomide cycle (5/21 schedule), vaccine on day 19
Description: To characterize the response of the various T cell populations during a cycle of temozolomide (5/21 schedule) and concurrently administered vaccine (day 19 on this example), we obtained peripheral blood on days 0, 3, 5, 12, 19, 23, 25 and 26. By flow analysis cytometry, we investigated the percentage of the CD8+ T cell and CD4+CD25+FoxP3+ regulatory T cells subsets during an immunochemotherapy cycle. All fluorescence-conjugated monoclonal antibodies (mAb) (PerCP-Cy5.5-CD3, FITC-CD8, APC-CD4 and PE-CD25) were purchased from BD Biosciences except the FITC-labeled mAb of FoxP3 was made by eBioscience. The surface and intracellular staining of peripheral blood cells were performed according to the standard procedures provided by the manufacturer. Results were analyzed by FACSCalibur flow cytometer using Cellquest Pro software (BD Biosciences). In contrast to the decline of the CD8+ T cell subset, the Treg population started to increase after the administration of temozolomide for 3 days and reached its peak (0.9% of total CD4^+ T cells) on day 12. The Tregs then began to drop until day 23 while the CD8^+ T cell numbers started to recover. At the end of the course, both of CD8^+ T cell and Treg populations recovered to pre-treatment levels.

Cn1nnc2c(C(N)=O)ncn2c1=O [temozolomide]
Treg population peak: 0.9 % of total CD4+ T cells
